pEC50: −log10 of the molar value. Read-outs that look alike come from different tables or passages of the source.
What was measured:
PPAR-γ = molecular target: T1, PPAR-γ (Mus musculus, UniProt P37238); assay: 3T3-L1 transient reporter assay (AD3T3-L1 reporter); type: cell-based, murine; conditions: for pEC50: 3T3-L1 cells, aP2 promoter luciferase reporter, 48 hours
T1 construct: endogenous in cells; host or cells: 3T3-L1 preadipocytes, differentiated for about 3 days with methyl isobutylxanthine, dexamethasone and insulin
T1 sequence (P37238 1-505): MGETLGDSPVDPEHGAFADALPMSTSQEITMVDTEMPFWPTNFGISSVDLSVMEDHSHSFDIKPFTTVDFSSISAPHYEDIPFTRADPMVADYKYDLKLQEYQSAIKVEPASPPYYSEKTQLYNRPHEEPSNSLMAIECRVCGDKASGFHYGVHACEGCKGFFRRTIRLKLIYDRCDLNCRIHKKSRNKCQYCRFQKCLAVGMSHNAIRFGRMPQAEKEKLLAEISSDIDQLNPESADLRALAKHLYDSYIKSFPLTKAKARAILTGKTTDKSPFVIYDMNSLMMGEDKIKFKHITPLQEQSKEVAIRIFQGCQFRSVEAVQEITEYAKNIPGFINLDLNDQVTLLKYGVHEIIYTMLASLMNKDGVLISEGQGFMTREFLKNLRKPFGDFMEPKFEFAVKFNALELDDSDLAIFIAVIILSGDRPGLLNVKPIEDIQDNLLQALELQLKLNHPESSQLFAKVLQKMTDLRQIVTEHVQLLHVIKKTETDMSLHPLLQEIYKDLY
Procedure: This assay is used to determine the potential of putative PPAR-γ ligands to activate the promoter/enhancer of the murine aP2 gene. 3T3-L1 preadipocytes are cultured on collagen coated plates in DMEM containing 10% Calf serum for 48 hours post-confluence. The cells are then cultured for approximately 3 days in DMEM containing 10% Fetal Bovine Serum (FBS), 0.5-mM methyl isobutylxanthine, 0.25 μM dexamethasone, and 1 μg/ml of insulin. Cells are detached from the plates with Trypsin-EDTA and resuspended in Phosphate Buffered Saline (PBS).
The reporter construct used in this assay is comprised of the —5.4 Kb 5′ flanking region of the murine aP2 gene inserted into the cloning site of the TKpGL3 luciferase vector. Transfection efficiency is controlled by co-transfection of the reference plasmid CMV-β-galactosidase. The reporter construct and the reference plasmid are transiently co-transfected into the cells by electroporation. The transfected cells are plated into collagen coated 96-well plates and cultured overnight. Cells are then incubated for 48 hours with the test compounds and then harvested. The lysates are measured for luciferase and β-galactosidase activities using the Dual-Light® luciferase kit from Tropix on a EG&G Berthold MicroLumat LB96P luminometer.

[1] = test system: Ob/Ob diabetic mouse model; assay: Blood glucose measurement (Glucose Δ) in Ob/Ob diabetic mouse model; type: in vivo
Procedure: Glucose is obtained 4 hours post dose via tail vein stick (5 μl whole blood) in awake, 4 hour fasted animals. Blood is drawn by capillary action into a glucose cuvette and read in a HemoCue Glucose Analyzer (Ryan Diagnostics). Blood is diluted 1:2 with saline if glucose levels are greater than 400 mg/dl (meter high range) and results multiplied by two.

[2] = 3T3-L1, maximal response relative to rosiglitazone, read-out: AD3T3-L1 Reporter Max. % Rosi (maximal response)

Structure (SMILES)	Emax (PPAR-γ; 3T3-L1, read-out: AD3T3-L1 Reporter Max. % Rosi (maximal response)) [%]	pEC50 (PPAR-γ)	Emax (PPAR-γ; [2]) [%]	In VIVO Δ Glucose @ 20 mg/kg ([1]; 20 mg/kg, glucose 4 hours post dose) [mg/dL]	In VIVO % Rosiglitazone ([1]; 20 mg/kg, glucose change relative to rosiglitazone) [%]	Blood glucose in Ob/Ob diabetic mouse model ([1]; Ob/Ob diabetic mouse, in 3 days at 20 mg/Kg)
Cc1oc(-c2ccccc2)nc1CCCC#CCC(C(=O)O)n1cccc1 (stereo not drawn) [Example 1-11]	108	7.05				
Cc1oc(-c2ccccc2)nc1CCCC#CCC(C(=O)O)n1nccn1 (stereo not drawn) [Example 1-15, 8-(5-Methyl-2-phenyl-oxazol-4-yl)-2-[1,2,3]triazol-2-yl-oct-4-ynoic Acid]		7.82	103	-258	180	Normalized blood glucose
Cc1oc(-c2ccccc2)nc1CCCC#CCC(C(=O)O)c1cccs1 (stereo not drawn) [Example 1-13, 8-(5-Methyl-2-phenyl-oxazol-4-yl)-2-thiophen-2-yl-oct-4-ynoic Acid]		6.52	97			
